From US8710089B2, “Triazole derivatives as ghrelin analogue ligands of growth hormone secretagogue receptors” (Zentaris GmbH, priority 2005, dated 2014)

Legend:
[1] = test system: young-adult male Sprague-Dawley rats; assay: Feeding behavior (food intake) of young-adult male rats; format: in vivo, rat (Sprague-Dawley)
Experimental: V) Assaying the Feeding Behavior (Food Intake) of Young-Adult Male Rats
The impact of compounds of the invention being GHS receptor analogue ligands on the feeding behaviour, i.e. food intake, of young-adult male rats was assayed.
In principle, assaying the feeding behavior (food intake) of young-adult male rats was performed according to Torsello et al. (Eur. J. Pharmacol. 1998, 360: 123-129).
For the assay, young-adult male Sprague-Dawley rats (Charles River, Calco, Italy), weighing 200-250 g, were used.
Rats had 1 week of acclimation in individual home cages, and animal room conditions (22±2° C., 65% humidity, artificial light from 08.00 to 20.00 h). The following week, they were daily trained to mimic the experimental procedure. Rats maintained free access to dry pellets and tap water throughout the whole experimental period. At the end of training, rats were administered (around 10.00-11.00 a.m.) subcutaneously with the compounds to be tested (160 μg/kg body weight) and/or hexarelin (80 μg/kg body weight) and/or solvent [DMSO (0.4% of total volume), distilled water (4% of total volume), brought to the final volume with physiological saline].
Hexarelin was used to study the effects of the compounds to be tested on stimulated feeding behavior. Immediately after the injections, the animals were returned to their home cages, which contained a known amount of standard rat chow and ad libitum water. Every hour for the following 6 hours, the remaining food was carefully collected and weighed to the nearest 0.1 g. Food intake was normalized for the body weight of the rats and expressed as grams of food eaten per 100 g body weight of rats.
In the following table 4 results obtained for selected compounds of the invention are presented.

human GHS-R 1a = target: T1, human GHS-R 1a (Homo sapiens, UniProt Q92847); assay: GHS-R 1a receptor-ligand binding assay (membrane preparations from transfected LLC PK-1 cells); settings: displacement of 125I-His9-ghrelin (60 pM); membranes of LLC PK-1 cells transfected with human GHS-R 1a; mean of at least two independent experiments in triplicates
T1 construct: expressed in transfected cells; host or cells: LLC PK-1 porcine renal epithelial cells (ECACC No. 86121112), isolated plasma membranes
How it was run: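 Membranes from LLC PK-1 cells expressing human GHS-R 1a incubated 60 min at 25 °C in 50 mM Tris pH 7.3, 5 mM MgCl2, 2.5 mM EDTA, bacitracin with 60 pM 125I-ghrelin and competitor; nonspecific binding with 10^-6 M ghrelin; filtration read-out.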

[2] = compound 160 μg/kg s.c. + hexarelin 80 μg/kg s.c.
[3] = compound alone, 160 μg/kg body weight s.c.

T1 sequence (Q92847 whole entry): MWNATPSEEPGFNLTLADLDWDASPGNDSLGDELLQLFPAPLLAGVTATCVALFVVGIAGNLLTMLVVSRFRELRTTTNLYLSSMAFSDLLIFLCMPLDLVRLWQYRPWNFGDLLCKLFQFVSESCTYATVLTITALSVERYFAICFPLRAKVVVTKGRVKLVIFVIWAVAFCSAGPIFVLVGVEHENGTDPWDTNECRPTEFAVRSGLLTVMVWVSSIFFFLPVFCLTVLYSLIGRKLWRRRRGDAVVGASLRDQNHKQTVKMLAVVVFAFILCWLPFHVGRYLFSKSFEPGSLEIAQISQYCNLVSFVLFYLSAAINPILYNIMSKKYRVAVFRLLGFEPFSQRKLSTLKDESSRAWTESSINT

| SMILES | IC50 (human GHS-R 1a) [µM] | further results |
| --- | --- | --- |
| COc1ccc(Cn2c(Cc3ccccc3)nnc2[C@@H](Cc2c[nH]c3ccccc23)NC(=O)C(C)(C)N)cc1 [compound 13, (R)—N-(1-(4-(4-methoxybenzyl)-5-benzyl-4H-1,2,4-triazol-3-yl)-2-(1H-indol-3-yl)ethyl)-2-amino-2-methylpropanamide] | 0.138 | Cumulative food intake (after 2 hours) [1, 2]: 0.731 ± 0.318 g food/100 g body weight; Cumulative food intake (after 6 hours) [1, 2]: 0.792 ± 0.337 g food/100 g body weight; Cumulative food intake (after 2 hours) [1, 3]: 0.057 ± 0.057 g food/100 g body weight; Cumulative food intake (after 6 hours) [1, 3]: 0.167 ± 0.167 g food/100 g body weight |
| CC(C)(N)C(=O)N[C@H](Cc1c[nH]c2ccccc12)c1nnc(CCc2c[nH]c3ccccc23)n1CCc1c[nH]c2ccccc12 [compound 17, (R)—N-(1-(4,5-bis(2-(1H-indol-3-yl)ethyl)-4H-1,2,4-triazol-3-yl)-2-(1H-indol-3-yl)ethyl)-2-amino-2-methylpropanamide] | 0.156 | Cumulative food intake (after 2 hours) [1, 2]: 0.0501 ± 0.049 g food/100 g body weight; Cumulative food intake (after 6 hours) [1, 2]: 0.846 ± 0.411 g food/100 g body weight; Cumulative food intake (after 2 hours) [1, 3]: 0.001 ± 0.001 g food/100 g body weight; Cumulative food intake (after 6 hours) [1, 3]: 0.2661 ± 0.166 g food/100 g body weight |
| COc1ccc(Cn2c(CCc3ccccc3)nnc2[C@@H](Cc2c[nH]c3ccccc23)NC(=O)[C@H]2CCCCN2)cc1 [compound 49, (R)—N—((R)-1-(4-(4-methoxybenzyl)-5-phenethyl-4H-1,2,4-triazol-3-yl)-2-(1H-indol-3-yl)ethyl)piperidine-2-carboxamide] |  | Cumulative food intake (after 2 hours) [1, 2]: 0.057 ± 0.037 g food/100 g body weight; Cumulative food intake (after 6 hours) [1, 2]: 0.558 ± 0.212 g food/100 g body weight; Cumulative food intake (after 2 hours) [1, 3]: 0.004 ± 0.004 g food/100 g body weight; Cumulative food intake (after 6 hours) [1, 3]: 0.004 ± 0.004 g food/100 g body weight |
| CCc1ccc(Cn2c(CCc3ccccc3)nnc2[C@@H](Cc2c[nH]c3ccccc23)NC(=O)[C@H]2CCCNC2)cc1 [compound 155, (3S)—N—((R)-1-(4-(4-ethylbenzyl)-5-phenethyl-4H-1,2,4-triazol-3-yl)-2-(1H-indol-3-yl)ethyl)piperidine-3-carboxamide] | 0.188 |  |
| O=C(N[C@H](Cc1c[nH]c2ccccc12)c1nnc(CCc2c[nH]c3ccccc23)n1-c1ccccc1)c1ccccn1 [compound 157, N—((R)-1-(5-(2-(1H-indol-3-yl)ethyl)-4-phenyl-4H-1,2,4-triazol-3-yl)-2-(1H-indol-3-yl)ethyl)picolinamide] | 0.16 |  |
| O=C(N[C@H](Cc1c[nH]c2ccccc12)c1nnc(Cc2ccccc2)n1Cc1ccccn1)c1ccccn1 [compound 164, N—((R)-1-(5-benzyl-4-((pyridin-2-yl)methyl)-4H-1,2,4-triazol-3-yl)-2-(1H-indol-3-yl)ethyl)picolinamide] | 0.207 |  |
| CC(C)(N)C(=O)N[C@H](Cc1c[nH]c2ccccc12)c1nnc(CCc2c[nH]c3ccccc23)n1-c1ccccc1 [compound 175, N—((R)-1-(5-(2-(1H-indol-3-yl)ethyl)-4-phenyl-4H-1,2,4-triazol-3-yl)-2-(1H-indol-3-yl)ethyl)-2-amino-2-methylpropanamide] | 0.14 |  |
| COc1ccc(Cn2c(CCc3ccccc3)nnc2[C@@H](Cc2c[nH]c3ccccc23)NCCN)c(OC)c1 [compound 180, N-1-((R)-1-(4-(2,4-dimethoxybenzyl)-5-phenethyl-4H-1,2,4-triazol-3-yl)-2-(1H-indol-3-yl)ethyl)ethane-1,2-diamine] | 0.189 |  |
| COc1ccc(Cn2c(CCc3ccccc3)nnc2[C@@H](Cc2c[nH]c3ccccc23)NC(=O)[C@@H](N)Cc2ccccc2)cc1 [compound 186, (2S)—N—((R)-1-(4-(4-methoxybenzyl)-5-phenethyl-4H-1,2,4-triazol-3-yl)-2-(1H-indol-3-yl)ethyl)-2-amino-3-phenylpropanamide] | 0.175 |  |

Continued, in another order:

| IC50 (human GHS-R 1a) [µM] | SMILES | further results |
| --- | --- | --- |
| 0.032 | COc1ccc(Cn2c(CCc3c[nH]c4ccccc34)nnc2[C@@H](Cc2c[nH]c3ccccc23)NC(=O)C2CNCCN2)c(OC)c1 (mixture of isomers) [compound 72] | Cumulative food intake (after 2 hours) [1, 2]: 0.634 ± 0.33 g food/100 g body weight; Cumulative food intake (after 6 hours) [1, 2]: 0.746 ± 0.31 g food/100 g body weight; Cumulative food intake (after 2 hours) [1, 3]: 0.008 ± 0.003 g food/100 g body weight; Cumulative food intake (after 6 hours) [1, 3]: 0.011 ± 0 g food/100 g body weight |
| 0.07 | O=C(N[C@H](Cc1c[nH]c2ccccc12)c1nnc(CCc2c[nH]c3ccccc23)n1-c1ccccc1)C1CCNCC1 [compound 158, N—((R)-1-(5-(2-(1H-indol-3-yl)ethyl)-4-phenyl-4H-1,2,4-triazol-3-yl)-2-(1H-indol-3-yl)ethyl)piperidine-4-carboxamide] |  |
| 0.033 | COc1ccc(-n2c(CCc3ccccc3)nnc2[C@@H](Cc2c[nH]c3ccccc23)NC(=O)c2ccccn2)c(OC)c1 [compound 159, N—((R)-2-(1H-indol-3-yl)-1-(4-(2,4-dimethoxyphenyl)-5-phenethyl-4H-1,2,4-triazol-3-yl)ethyl)picolinamide] |  |
| 0.121 | COc1ccc(-n2c(CCc3ccccc3)nnc2[C@@H](Cc2c[nH]c3ccccc23)NC(=O)Cc2ccccn2)c(OC)c1 [compound 160, N—((R)-2-(1H-indol-3-yl)-1-(4-(2,4-dimethoxyphenyl)-5-phenethyl-4H-1,2,4-triazol-3-yl)ethyl)-2-(pyridin-2-yl)acetamide] |  |
| 0.063 | COc1ccc(-n2c(CCc3ccccc3)nnc2[C@@H](Cc2c[nH]c3ccccc23)NC(=O)C2CCNCC2)c(OC)c1 [compound 163, N—((R)-2-(1H-indol-3-yl)-1-(4-(2,4-dimethoxyphenyl)-5-phenethyl-4H-1,2,4-triazol-3-yl)ethyl)piperidine-4-carboxamide] |  |
| 0.114 | CC(C)(N)C(=O)N[C@H](Cc1c[nH]c2ccccc12)c1nnc(CCc2ccccc2)n1Cc1ccccc1 [compound 173, N—((R)-1-(4-benzyl-5-phenethyl-4H-1,2,4-triazol-3-yl)-2-(1H-indol-3-yl)ethyl)-2-amino-2-methylpropanamide] |  |
| 0.08 | COc1ccc(Cn2c(CCc3ccccc3)nnc2[C@@H](Cc2c[nH]c3ccccc23)NC(=O)c2ccccc2)cc1 [compound 176, N—((R)-1-(4-(4-methoxybenzyl)-5-phenethyl-4H-1,2,4-triazol-3-yl)-2-(1H-indol-3-yl)ethyl)benzamide] |  |
| 0.062 | COc1ccc(Cn2c(CCc3ccccc3)nnc2[C@@H](Cc2c[nH]c3ccccc23)NC(=O)C(C)(C)N)c(OC)c1 [compound 179, N—((R)-1-(4-(2,4-dimethoxybenzyl)-5-phenethyl-4H-1,2,4-triazol-3-yl)-2-(1H-indol-3-yl)ethyl)-2-amino-2-methylpropanamide] |  |
| 0.081 | O=C(N[C@H](Cc1c[nH]c2ccccc12)c1nnc(CCc2ccccc2)n1Cc1ccco1)c1ccccn1 [compound 182, N—((R)-1-(4-((furan-2-yl)methyl)-5-phenethyl-4H-1,2,4-triazol-3-yl)-2-(1H-indol-3-yl)ethyl)picolinamide] |  |
| 0.0059 | COc1ccc(Cn2c(CCc3ccccc3)nnc2[C@@H](Cc2c[nH]c3ccccc23)NC(=O)C2CCOCC2)cc1 [compound 184, N—((R)-1-(4-(4-methoxybenzyl)-5-phenethyl-4H-1,2,4-triazol-3-yl)-2-(1H-indol-3-yl)ethyl)-tetrahydro-2H-pyran-4-carboxamide] |  |
| 0.066 | COc1ccc(Cn2c(CCc3c[nH]c4ccccc34)nnc2[C@@H](Cc2c[nH]c3ccccc23)NS(=O)(=O)c2ccc(C)cc2)c(OC)c1 [compound 187, (R)-1-(5-(2-(1H-indol-3-yl)ethyl)-4-(2,4-dimethoxybenzyl)-4H-1,2,4-triazol-3-yl)-2-(1H-indol-3-yl)-N-tosylethanamine] |  |
| 0.087 | COc1ccc(Cn2c(CCc3ccccc3)nnc2[C@@H](Cc2c[nH]c3ccccc23)NC(=O)c2ccc(N=[N+]=[N-])cc2)c(OC)c1 [compound 188, N—((R)-1-(4-(2,4-dimethoxybenzyl)-5-phenethyl-4H-1,2,4-triazol-3-yl)-2-(1H-indol-3-yl)ethyl)-4-azidobenzamide] |  |
| 0.012 | COc1ccc(Cn2c(CCc3c[nH]c4ccccc34)nnc2[C@@H](Cc2c[nH]c3ccccc23)NC(=O)[C@@H]2C=CCN2)cc1 [compound 190, (2S)—N—((R)-1-(5-(2-(1H-indol-3-yl)ethyl)-4-(4-methoxybenzyl)-4H-1,2,4-triazol-3-yl)-2-(1H-indol-3-yl)ethyl)-2,5-dihydro-1H-pyrrole-2-carboxamide] |  |
